{"source": "patent US20250375417A1", "about": "“OREXIN RECEPTOR 2 (OX2R) AGONIST FOR USE IN NARCOLEPSY TYPE 1 (NT1)” (TAKEDA PHARMACEUTICAL COMPANY LIMITED, priority 2024, published 2025)", "key": {"[1]": {"system": "patients with NT1", "test": "Ambulatory blood pressure monitoring (ABPM), nocturnal BP dip, Phase 2 NT1 trial", "assay_type": "in vivo, human", "settings": "for DBP 24-h average, LS mean change at Week 6 from baseline / DBP 24-h pattern dip, LS mean change at Week 6 from baseline / DBP 24-h pattern highest, LS mean change at Week 6 from baseline / DBP 24-h pattern lowest, LS mean change at Week 6 from baseline / SBP 24-h average, LS mean change at Week 6 from baseline / SBP 24-h pattern dip, LS mean change at Week 6 from baseline / SBP 24-h pattern highest, LS mean change at Week 6 from baseline / SBP 24-h pattern lowest, LS mean change at Week 6 from baseline: baseline DBP non-dippers", "text": "Blunted nocturnal blood pressure (BP) dip, a potential risk factor for cardiovascular disease, may affect approximately ⅓ of patients with NT1. In the studies described herein, ambulatory blood pressure monitoring (ABPM) recordings can be obtained over an approximately 24.5-hour period and participants should not be confined to the clinical site during most of the 24.5-hour recording period. The ABPM device should be applied on-site. Because it is a requirement that the ABPM devices begin recording in the morning before the first morning dose (or similar time if performed during screening period), site staff may opt to confine participants in the evening before fitting participants with the ABPM monitoring device. If the participant is travelling to the site for the ABPM fitting, they may delay their first morning dose of study medication (to be taken no later than 10 AM) if needed. Participants who are confined the evening prior should also take their study drug right after the ABPM recording starts. For the ABPM during the screening period, the recording should begin between 8:00 AM±2 hours. Sites should ensure that all recordings meet the minimum threshold of acceptability. […] Participants will be trained on the use of the device with NT1.\nUsing functional data analysis, systolic BP (SBP) and diastolic BP (DBP) can be estimated in 24-hour patterns and key parameters, such as average, waveform amplitude, lowest and highest points, and dip amplitude (defined as [average−lowest]/average) can be extracted for each subject-visit. Non-dippers are defined as DBP 24-hour dip<13.44, as projected from a DBP fixed-window daytime to nighttime dip of <10%.\nBlunted nocturnal blood pressure (BP) dip, a potential risk factor for cardiovascular disease, may affect approximately ⅓ of patients with narcolepsy type 1 (NT1). Ambulatory BP monitor (ABPM) data from 112 study patients with NT1 was measured. Using functional data analysis, systolic BP (SBP) and diastolic BP (DBP) were estimated in 24-hour patterns and key parameters were extracted, such as average, waveform amplitude, lowest and highest values, and dip amplitude (defined as [average-lowest]/average) at baseline and Week 6. […] Non-dippers were defined as having DBP 24-hour dip below a threshold corresponding to DBP daytime (6 am-10 pm) to nighttime ([…]) drop of <10%. Longitudinal changes in BP parameters were quantified across five randomized treatment arms (placebo, Compound A 0.5 mg twice 3 hours apart, 2 mg twice 3 hours apart, 2 mg then 5 mg 3 hours later, and 7 mg once-daily) at Week 6 post-baseline. Associations between BP and sleep parameters were assessed longitudinally by matching ABPM data from baseline and Week 6 with nocturnal polysomnography data from baseline and Week 8, respectively."}, "[2]": {"system": "participants with NT2", "test": "Safety (TEAEs), Phase 2 NT2 trial", "assay_type": "in vivo, human", "description": "The principal mitigation strategy for risks related to BP increase, HR increase, insomnia, and bladder events included appropriate selection of the study population; use of the inpatient clinical research unit setting and home health visits, which permitted close monitoring and rapid institution of appropriate care as needed; appropriate specified monitoring procedures; and use of experienced staff trained in study procedures. To mitigate cardiovascular risks, BP and HR were measured frequently in this study; cardiovascular effects were evaluated by using BP and HR assessments and electrocardiographic (ECG) assessments. Stopping rules for individual participants and the overall study were established. In addition, because liver function test (LFT) elevation cases have been observed in another OX2R agonist with structural similarity, LFTs (ALT, AST, GGT, and total bilirubin) were closely monitored.\nLiver function test (LFTs) (alanine aminotransferase [ALT], aspartate aminotransferase [AST], γ-glutamyl transferase [GGT], and total bilirubin) were closely monitored in this study. Stopping criteria for individual participants and the overall study, based on abnormal LFTs were established.\nEligible participants were age 18-70 years, with Epworth Sleepiness Scale (ESS) score>12 and no other current EDS-related medical conditions. Participants were randomized 1:1:1 to daily oral Compound A 2 mg twice 3 hours apart, 2 mg then 5 mg 3 hours later, or placebo. Study endpoints included change from baseline to Week 8 in mean Sleep Onset Latency on the Maintenance of Wakefulness Test (mean SOL-MWT; primary endpoint), ESS total score, and incidence of treatment-emergent adverse events (TEAEs). Participants who completed the placebo-controlled study could enroll in a ˜2-year Long Term Extension (LTE) study. LTE TEAE data up to Jan. 25, 2024 are reported."}}, "note": "Values joined by “and” are separate entries in the source; they are usually repeats but may differ in a detail not shown here. Identical values can stand only once."}
{"smiles": "CCS(=O)(=O)N[C@@H]1[C@H](Cc2cccc(-c3cc(F)cc(F)c3)c2F)N(C(=O)C(C)(C)O)CC1(F)F", "note": "[Compound A, N-{(2S,3R)-4,4-difluoro-1-(2-hydroxy-2-methylpropanoyl)-2-[(2,3′,5′-trifluoro[1,1′-biphenyl]-3-yl)methyl]pyrrolidin-3-yl}ethanesulfonamide]", "values": [{"measurement": "SBP or DBP dip, change from baseline at Week 6", "setting": "[1]; baseline DBP dippers (n=73), either treatment arm", "result": "no significant changes"}, {"measurement": "DBP 24-h average, LS mean change at Week 6 from baseline", "setting": "[1]; 0.5 mg/0.5 mg", "result": 0.17}, {"measurement": "DBP 24-h pattern dip, LS mean change at Week 6 from baseline", "setting": "[1]; 0.5 mg/0.5 mg", "result": "2.7% and 2.67%"}, {"measurement": "DBP 24-h pattern highest, LS mean change at Week 6 from baseline", "setting": "[1]; 0.5 mg/0.5 mg", "result": 0.75}, {"measurement": "DBP 24-h pattern lowest, LS mean change at Week 6 from baseline", "setting": "[1]; 0.5 mg/0.5 mg", "result": "−1.73"}, {"measurement": "SBP 24-h average, LS mean change at Week 6 from baseline", "setting": "[1]; 0.5 mg/0.5 mg", "result": "−1.42"}, {"measurement": "SBP 24-h pattern dip, LS mean change at Week 6 from baseline", "setting": "[1]; 0.5 mg/0.5 mg", "result": 1.20, "unit": "%"}, {"measurement": "SBP 24-h pattern highest, LS mean change at Week 6 from baseline", "setting": "[1]; 0.5 mg/0.5 mg", "result": "−0.87"}, {"measurement": "SBP 24-h pattern lowest, LS mean change at Week 6 from baseline", "setting": "[1]; 0.5 mg/0.5 mg", "result": "−2.48"}, {"measurement": "DBP 24-h average, LS mean change at Week 6 from baseline", "setting": "[1]; 2 mg/2 mg", "result": "−0.08"}, {"measurement": "DBP 24-h pattern dip, LS mean change at Week 6 from baseline", "setting": "[1]; 2 mg/2 mg", "result": "7.9% and 7.91%"}, {"measurement": "DBP 24-h pattern highest, LS mean change at Week 6 from baseline", "setting": "[1]; 2 mg/2 mg", "result": 1.62}, {"measurement": "DBP 24-h pattern lowest, LS mean change at Week 6 from baseline", "setting": "[1]; 2 mg/2 mg", "result": "−5.93"}, {"measurement": "SBP 24-h average, LS mean change at Week 6 from baseline", "setting": "[1]; 2 mg/2 mg", "result": 0.05}, {"measurement": "SBP 24-h pattern dip, LS mean change at Week 6 from baseline", "setting": "[1]; 2 mg/2 mg", "result": 5.36, "unit": "%"}, {"measurement": "SBP 24-h pattern highest, LS mean change at Week 6 from baseline", "setting": "[1]; 2 mg/2 mg", "result": 1.45}, {"measurement": "SBP 24-h pattern lowest, LS mean change at Week 6 from baseline", "setting": "[1]; 2 mg/2 mg", "result": "−6.55"}, {"measurement": "DBP 24-h average, LS mean change at Week 6 from baseline", "setting": "[1]; 2 mg/5 mg", "result": "−3.40"}, {"measurement": "DBP 24-h pattern dip, LS mean change at Week 6 from baseline", "setting": "[1]; 2 mg/5 mg", "result": "8.1% and 8.11%"}, {"measurement": "DBP 24-h pattern highest, LS mean change at Week 6 from baseline", "setting": "[1]; 2 mg/5 mg", "result": "−1.18"}, {"measurement": "DBP 24-h pattern lowest, LS mean change at Week 6 from baseline", "setting": "[1]; 2 mg/5 mg", "result": "−8.71"}, {"measurement": "SBP 24-h average, LS mean change at Week 6 from baseline", "setting": "[1]; 2 mg/5 mg", "result": "−4.13"}, {"measurement": "SBP 24-h pattern dip, LS mean change at Week 6 from baseline", "setting": "[1]; 2 mg/5 mg", "result": 4.11, "unit": "%"}, {"measurement": "SBP 24-h pattern highest, LS mean change at Week 6 from baseline", "setting": "[1]; 2 mg/5 mg", "result": "−1.86"}, {"measurement": "SBP 24-h pattern lowest, LS mean change at Week 6 from baseline", "setting": "[1]; 2 mg/5 mg", "result": "−8.80"}, {"measurement": "DBP 24-h average, LS mean change at Week 6 from baseline", "setting": "[1]; 7 mg QD", "result": "−0.75"}, {"measurement": "DBP 24-h pattern dip, LS mean change at Week 6 from baseline", "setting": "[1]; 7 mg QD", "result": "6.6% and 6.61%"}, {"measurement": "DBP 24-h pattern highest, LS mean change at Week 6 from baseline", "setting": "[1]; 7 mg QD", "result": 1.26}, {"measurement": "DBP 24-h pattern lowest, LS mean change at Week 6 from baseline", "setting": "[1]; 7 mg QD", "result": "−5.13"}, {"measurement": "SBP 24-h average, LS mean change at Week 6 from baseline", "setting": "[1]; 7 mg QD", "result": 1.32}, {"measurement": "SBP 24-h pattern dip, LS mean change at Week 6 from baseline", "setting": "[1]; 7 mg QD", "result": 3.28, "unit": "%"}, {"measurement": "SBP 24-h pattern highest, LS mean change at Week 6 from baseline", "setting": "[1]; 7 mg QD", "result": 3.31}, {"measurement": "SBP 24-h pattern lowest, LS mean change at Week 6 from baseline", "setting": "[1]; 7 mg QD", "result": "−2.44"}, {"measurement": "DBP 24-hour pattern dip, change from baseline at Week 6", "setting": "[1]; whole population (n=111), any Compound A dose", "result": "no significant changes"}, {"measurement": "Occurrence of TEAEs", "setting": "[2]; Compound A-treated participants (28/47), 8 weeks", "result": 59.6, "unit": "%"}, {"measurement": "Serious TEAEs", "setting": "[2]; parent and LTE study", "result": "no serious TEAEs"}, {"measurement": "Participants discontinued due to TEAEs", "setting": "[2]; parent study (arm not stated)", "result": "Two"}]}
